Source: patent publication US4814332A, “Antimicrobial 1,3-disubstituted/imidazolium salts” (Hoffman-La Roche Inc., priority 1986, dated 1989)

Tests used:
[1] = tested on: Litomosoides carinii; assay: filaricidal activity on cotton rats infected with Litomosoides carinii; assay type: in vivo, Litomosoides carinii (in cotton rats, Sigmodon hispidus); conditions: sc, 1008 h, s.c., L. carinii-infected cotton rats, treated 14 weeks after infection, dissected 42 days after treatment, Probit analysis, read-out: ED90 (dosage at which 90% of the worms removed from the pleural cavity are dead)
Procedure: (§1) The filaricidal activity of the compounds of formula I can be determined, for example, on cotton rats (Sigmodon hispidus) which have been infected with Litomosoides carinii. The infection with L. carinii is transmitted by the blood-sucking mite Bdellonyssus bacoti in which the development of the microfilaria in infectious larvae takes place. The cotton rats are infected by exposing them to bites of infected mites. After fourteen (14) weeks, the infected groups of 2-4 animals are treated subcutaneously with the compound to be tested. Forty two (42) days after treatment with the compound to be tested, the experimental animals are dissected, and the adult filaria are removed from the pleural cavity. Living and dead or encapsulated worms are separated from one another and weighed. The filaricidal activity is expressed as the percentage proportion of dead macrofilaria per treatment group. The ED90 is then determined by means of Probit analysis using the values from different dosage groups. The ED90 is that dosage at which 90% of the worms removed from the pleural cavity are dead. In the following Table, the results which were obtained in the previously described test with representative members of the class of compound defined by formula I are compiled. Moreover, the Table contains data concerning the acute toxicity of some of the compounds of formula I in mg per kg obtained after single oral administration to mice.

[2] = acute toxicity after single oral administration to mice; conditions: mouse, in vivo, p.o.
Procedure: as §1, with “Moreover, the Table contains data concerning the acute toxicity of some of the compounds of formula I in mg per kg obtained after single oral administration to mice.” left out

Structure (SMILES) | ED90 [1] [mg/kg] | LD50 [2] [mg/kg]
CN(C)c1ccc(C=Nn2cc[n+](N=Cc3ccc(N(C)C)cc3)c2C=CN2CCCCC2)cc1.[Cl-] [Compound B, 1,3-bis[[p-(dimethylamino)benzylidene]amino]-2-(2-piperidinovinyl)imidazolium chloride] | 2 | 
CN(C)c1ccc(C=Nn2cc[n+](N=Cc3ccc(N(C)C)cc3)c2C=CN2CCOCC2)cc1.[Cl-] [Compound C, 1,3-bis[[p-(dimethylamino)benzylidene]amino]-2-(2-morpholinovinyl)imidazolium chloride] | 0.55 | 
CN(C)c1ccc(C=Nn2cc[n+](N=Cc3ccc(N(C)C)cc3)c2-c2ccccc2)cc1.[Cl-] [Compound D, 1,3-bis[[p-(dimethylamino)benzylidene]amino]-2-phenylimidazolium chloride] | < 1 | 1250 to 2500
CN(C)C=Cc1n(N=Cc2ccc(N(C)C)cc2)cc[n+]1N=Cc1ccc(N(C)C)cc1.[Cl-] [Compound A, 1,3-bis[[p-(dimethylamino)benzylidene]amino]-2-[2-(dimethylamino)vinyl]imidazolium chloride] | 1 | 312 to 625
